We go through 13 compounds from patent publication US8703793B2, “Tricyclic pyridine derivatives, medicaments containing such compounds, their use and process for their preparation” (Boehringer Ingelheim International GmbH, priority 2008, dated 2014).

pIC50: −log10 of the molar value. Some results are limits rather than exact numbers.

In one assay the target is T1, Recombinant human CETP (Homo sapiens, UniProt P11597).
T1 construct: made in house; host or cells: CHO cells (secreted into conditioned medium)
T1 sequence (P11597 18-493): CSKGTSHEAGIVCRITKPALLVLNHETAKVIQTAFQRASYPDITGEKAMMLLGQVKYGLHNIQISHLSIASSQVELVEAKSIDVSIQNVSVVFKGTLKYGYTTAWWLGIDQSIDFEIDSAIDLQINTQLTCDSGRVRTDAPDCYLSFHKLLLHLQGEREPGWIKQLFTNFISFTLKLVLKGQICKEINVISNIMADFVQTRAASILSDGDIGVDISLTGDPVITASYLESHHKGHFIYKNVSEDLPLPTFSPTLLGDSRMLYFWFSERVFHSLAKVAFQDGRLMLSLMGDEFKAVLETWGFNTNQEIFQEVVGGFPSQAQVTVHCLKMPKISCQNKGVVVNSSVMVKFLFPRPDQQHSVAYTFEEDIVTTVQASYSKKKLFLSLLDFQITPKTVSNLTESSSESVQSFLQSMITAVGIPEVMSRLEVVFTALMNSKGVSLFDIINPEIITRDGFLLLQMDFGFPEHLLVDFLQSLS
As to the kind of experiment: CETP Scintillation Proximity Assay. In kind it is biochemical. Particulars: 3H-cholesteryl ester transfer from human HDL donor to biotin labelled LDL, over night at room temperature; read-out: IC50 values for CETP inhibitory activity. The procedure: CETP Scintillation Proximity Assay
Recombinant human CETP is partially purified from medium conditioned by CETP expressing CHO cells. In a 96 well homogeneous assay format CETP transfers ^3H-labelled cholesteryl esters from human HDL donor particles to biotin labelled LDL particles. Following over night incubation at room temperature the reaction is stopped by addition of streptavidin-coupled scintillation proximity assay (SPA) beads. These beads captured the biotinylated acceptor particles and the radioactivity is measured. The assay system is purchased and performed according to the manufacturer's recommendations (GE Healthcare).
Inhibitory activity of compounds is determined as percentage of positive control activity containing CETP together with donor and acceptor particles. Background activity is determined by adding buffer instead of CETP. Serial dilution of compound in buffer containing 10% DMSO is performed in order to determine the IC50 values.
(In general: SPA uses beads or plates that emit light when radiolabelled molecules are held near them.)
Turning to `CC1(C)Cc2nc3c(c(C4CCCC4)c2[C@@H](O)C1)[C@H](c1ccc(C(F)(F)F)cc1)OC31CCCC1` (single isomer, unassigned) [1 (10), (1′S,8′S)-9′-Cyclopentyl-6′,6′-dimethyl-1′-(4-(trifluoromethyl)phenyl)-5′,6′,7′,8′-tetrahydro-1′H-spiro[cyclopentane-1,3′-furo[3,4-b]quinolin]-8′-ol], the pIC50 (commonly −log10 of the IC50, conventionally taken in molar units) is > 6.00.
In the case of `CC1(C)Cc2nc3c(c(C4CCCC4)c2[C@@H](O)C1)C(c1ccc(C(F)(F)F)cc1)OC3(C)C` (single isomer, unassigned) [Example 1 (6)], the pIC50 was > 4.70.
The same measure, in the same setting: next, `CC1OC(c2ccc(C(C)(C)C)cc2)c2c1nc1c(c2C2CCCCC2)[C@@H](O)CC(C)(C)C1` (stereo partly drawn) [Example 2, 8-(S)-1-(4-tert-Butyl-phenyl)-9-cyclohexyl-3,6,6-trimethyl-1,3,5,6,7,8-hexahydro-furo[3,4b]quinolin-8-ol]: > 5.30.
Still for that read-out and setting: the value for `CC1(C)Cc2nc3c(c(C4CCCC4)c2[C@@H](O)C1)[C@H](c1ccc(C(F)(F)F)cc1)OC31CCCCC1` (single isomer, unassigned) [1 (8), (1′S,8′S)-9′-Cyclopentyl-6′,6′-dimethyl-1′-(4-(trifluoromethyl)phenyl)-5′,6′,7′,8′-tetrahydro-1′H-spiro[cyclohexane-1,3′-furo[3,4-b]quinolin]-8′-ol] was > 6.00.
In the case of `CC1(C)Cc2nc3c(c(C4CCCC4)c2[C@@H](O)C1)C(c1ccc(C(F)(F)F)cc1)OC3(C)C` (single isomer, unassigned) [Example 1 (5)], the pIC50 was > 6.00.
On to `CC1(C)Cc2nc3c(c(C4CCCC4)c2C(O)C1)C(c1ccc(C(F)(F)F)cc1)OC3(C)C` (single isomer, unassigned) [Example 1 (4), 9-Cyclopentyl-3,3,6,6-tetramethyl-1-(4-trifluoromethyl-phenyl)-1,3,5,6,7,8-hexahydro-furo[3,4-b]quinolin-8-ol], for which the negative-log IC50 (pIC50) was > 5.30.
As to `CC1OC(c2ccc(C(F)(F)F)cc2)c2c1nc1c(c2C2CCCC2)[C@@H](O)CC(C)(C)C1` (single isomer, unassigned) [Diastereomer 3 of Example 1 (2)], the pIC50 is > 6.00.
Still for that read-out and setting: the value for `CC1OC(c2ccc(C(F)(F)F)cc2)c2c1nc1c(c2C2CCCC2)[C@@H](O)CC(C)(C)C1` (single isomer, unassigned) [Diastereomer 4 of Example 1 (2)] was > 5.70; that for `CC1OC(c2ccc(C(F)(F)F)cc2)c2c1nc1c(c2C2CCCCC2)[C@@H](O)CC(C)(C)C1` (single isomer, unassigned) [Example 1 (7)] was > 6.00.
Consider `CC1(C)Cc2nc3c(c(C4CCCC4)c2[C@@H](O)C1)[C@@H](c1ccc(C(F)(F)F)cc1)OC31CCCCC1` (single isomer, unassigned) [1 (9), (1′R,8′S)-9′-Cyclopentyl-6′,6′-dimethyl-1′-(4-(trifluoromethyl)phenyl)-5′,6′,7′,8′-tetrahydro-1′H-spiro[cyclohexane-1,3′-furo[3,4-b]quinolin]-8′-ol], for which the pIC50 was > 4.70.
The same measure, in the same setting: the value for `CC1(C)Cc2nc3c(c(C4CCCC4)c2[C@@H](O)C1)C(c1ccc(C(F)(F)F)cc1)OC3` (single isomer, unassigned) [Diastereomer 1 of Example 1 (3)] was > 4.70.
Same read-out and setting: next, `CC1OC(c2ccc(C(F)(F)F)cc2)c2c1nc1c(c2C2CCCC2)[C@@H](O)CC(C)(C)C1` (single isomer, unassigned) [Example 1 (1)]: > 5.70; `CC1OC(c2ccc(C(F)(F)F)cc2)c2c1nc1c(c2C2CCCC2)[C@@H](O)CC(C)(C)C1` (single isomer, unassigned) [Example 1]: > 5.70.

The assay is the same for the next values; noted with them: comparison among diastereomers of the same structure.
Turning to `CC1(C)Cc2nc3c(c(C4CCCC4)c2[C@@H](O)C1)C(c1ccc(C(F)(F)F)cc1)OC3(C)C` (single isomer, unassigned) [Example 1 (5)], the “CETP inhibitory potency compared to the other diastereomers” value is on record as “higher CETP inhibitory potency as compared to the other diastereomer”.
On to `CC1OC(c2ccc(C(F)(F)F)cc2)c2c1nc1c(c2C2CCCC2)[C@@H](O)CC(C)(C)C1` (single isomer, unassigned) [Diastereomer 3 of Example 1 (2)], for which the “CETP inhibitory potency compared to the other diastereomers” value is reported as “higher CETP inhibitory potency as compared to the other diastereomers”.
